Measurements from ChEMBL document CHEMBL1287743, “Comparative inhibitory activity of 3'- and 5'-functionalized nucleosides on ribonuclease A” (Bioorg Med Chem, 2010).
The source made the active and inactive calls. The rule behind the calls is not given here.

Legend:
[1] = target: T1, Ribonuclease pancreatic (Bos taurus) (UniProt P61823); assay: Inhibition of bovine pancreatic RNase A assessed as degradation of tRNA at 1.9 mM after 6 hrs using ethidium bromide staining by agarose gel-based assay
T1 sequence (whole entry): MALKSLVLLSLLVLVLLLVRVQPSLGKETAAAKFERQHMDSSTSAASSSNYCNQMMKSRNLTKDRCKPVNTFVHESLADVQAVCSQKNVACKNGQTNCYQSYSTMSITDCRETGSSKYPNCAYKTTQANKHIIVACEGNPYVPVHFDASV

Ribonuclease pancreatic = target: T2, Ribonuclease pancreatic (Bos taurus, UniProt P61823); assay: Competitive inhibition of bovine pancreatic RNase A ribonucleolytic activity of by Dixon plot analysis
T2 sequence (P61823 whole entry): T1 sequence (whole entry)

[2] = target: T1, Ribonuclease pancreatic (Bos taurus); assay: Inhibition of bovine pancreatic RNase A ribonucleolytic activity of RNase A at 2.5 mM after 2 hrs by precipitation assay

inhibition [1]	Ki (Ribonuclease pancreatic) [µM]	inhibition [2] [%]	SMILES
Active	37	47.6	Cc1cn([C@H]2C[C@H](NC(=O)C(N)CC(=O)O)[C@@H](CO)O2)c(=O)[nH]c1=O (some centres undefined)
Active	67	32.2	Nc1ncnc2c1ncn2[C@@H]1O[C@H](C(=O)O)[C@@H](O)[C@H]1O [5'-CARBOXY ADENOSINE]
Active	193	23.5	Cc1cn([C@H]2C[C@H](O)[C@@H](C(=O)O)O2)c(=O)[nH]c1=O [5'-CARBOXY THYMIDINE]
